{"source": "ChEMBL document CHEMBL4507263", "about": "“Data for DCP probe BAY-474” (2021)", "key": {"hERG (KCNH2)": {"molecular_target": "hERG (KCNH2) (Homo sapiens, UniProt Q12809)", "assay": "Inhibition of Potassium Channel hERG at 10 µM in the Eurofins-Panlabs radioligand binding assay (Eurofins_assay_265900)", "set-up": "ligand concentration 1.5 nM, non-specific ligand with concentration Astemizole, incubation time 60 min, incubation temperature 25 °C", "conditions": "HEK-293 cells expressing human recombinant hERG, probe [3H] Astemizole, compound concentration 10 uM; call rule not given here"}, "[1]": {"molecular_target": "Voltage-dependent N-type calcium channel subunit alpha-1B (Homo sapiens) (UniProt Q00975)", "assay": "Inhibition of Calcium Channel N-Type at 10 µM in the Eurofins-Panlabs radioligand binding assay (Eurofins_assay_216000)", "conditions": "Rattus norvegicus; Compound concentration 10.0 uM"}, "[2]": {"molecular_target": "Rho-associated protein kinase 2 (Homo sapiens) (UniProt O75116)", "assay": "ROCK-II (h) Millipore kinase activity assay", "conditions": "Compound concentration 1.0 uM"}, "[3]": {"molecular_target": "Serine/threonine-protein kinase SIK1 (Homo sapiens) (UniProt P57059)", "assay": "SIK (h) Millipore kinase activity assay", "conditions": "Compound concentration 1.0 uM"}, "[4]": {"molecular_target": "MAP kinase-activated protein kinase 2 (Homo sapiens) (UniProt P49137)", "assay": "MAPKAP-K2 (h) Millipore kinase activity assay", "conditions": "Compound concentration 1.0 uM"}, "[5]": {"molecular_target": "Serine/threonine-protein kinase 10 (Homo sapiens) (UniProt O94804)", "assay": "LOK (h) Millipore kinase activity assay", "conditions": "Compound concentration 1.0 uM"}, "[6]": {"molecular_target": "Tyrosine-protein kinase ABL2 (Homo sapiens) (UniProt P42684)", "sequence (P42684 whole entry)": "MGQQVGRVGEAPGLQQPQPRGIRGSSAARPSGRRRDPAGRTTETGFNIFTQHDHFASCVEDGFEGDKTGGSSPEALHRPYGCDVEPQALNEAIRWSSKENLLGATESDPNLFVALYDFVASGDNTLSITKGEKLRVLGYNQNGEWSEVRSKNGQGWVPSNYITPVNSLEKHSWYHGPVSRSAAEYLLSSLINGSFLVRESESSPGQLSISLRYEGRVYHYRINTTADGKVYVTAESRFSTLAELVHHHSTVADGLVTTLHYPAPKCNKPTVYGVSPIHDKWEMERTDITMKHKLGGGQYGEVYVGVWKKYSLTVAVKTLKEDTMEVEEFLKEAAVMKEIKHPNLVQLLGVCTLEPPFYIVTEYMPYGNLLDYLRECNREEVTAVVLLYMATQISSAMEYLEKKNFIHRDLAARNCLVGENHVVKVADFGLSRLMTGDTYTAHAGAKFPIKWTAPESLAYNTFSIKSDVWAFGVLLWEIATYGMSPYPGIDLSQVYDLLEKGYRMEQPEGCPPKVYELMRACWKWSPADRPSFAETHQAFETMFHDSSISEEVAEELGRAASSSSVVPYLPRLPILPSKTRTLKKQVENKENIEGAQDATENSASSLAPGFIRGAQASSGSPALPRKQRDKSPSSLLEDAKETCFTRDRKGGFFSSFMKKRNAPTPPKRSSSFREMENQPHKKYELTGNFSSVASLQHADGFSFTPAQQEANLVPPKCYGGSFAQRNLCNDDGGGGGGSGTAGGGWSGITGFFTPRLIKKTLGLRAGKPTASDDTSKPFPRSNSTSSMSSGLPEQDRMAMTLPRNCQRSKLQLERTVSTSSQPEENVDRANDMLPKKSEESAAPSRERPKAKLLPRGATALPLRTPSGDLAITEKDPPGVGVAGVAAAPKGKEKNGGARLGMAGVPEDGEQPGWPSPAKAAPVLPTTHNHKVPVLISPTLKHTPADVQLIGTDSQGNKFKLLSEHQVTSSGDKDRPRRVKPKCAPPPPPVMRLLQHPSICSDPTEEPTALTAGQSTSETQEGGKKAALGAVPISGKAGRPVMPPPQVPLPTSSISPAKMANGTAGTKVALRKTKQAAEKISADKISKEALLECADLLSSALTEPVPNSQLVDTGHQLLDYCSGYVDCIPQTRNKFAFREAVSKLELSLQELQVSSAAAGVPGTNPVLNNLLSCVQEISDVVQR", "assay": "Arg (h) Millipore kinase activity assay", "conditions": "Compound concentration 1.0 uM"}, "[7]": {"molecular_target": "Endothelin-1 receptor (Homo sapiens) (UniProt P25101)", "conditions": "Compound concentration 10.0 uM"}, "[8]": {"molecular_target": "Insulin receptor-related protein (Homo sapiens) (UniProt P14616)", "sequence (P14616 27-742 limits assumed)": "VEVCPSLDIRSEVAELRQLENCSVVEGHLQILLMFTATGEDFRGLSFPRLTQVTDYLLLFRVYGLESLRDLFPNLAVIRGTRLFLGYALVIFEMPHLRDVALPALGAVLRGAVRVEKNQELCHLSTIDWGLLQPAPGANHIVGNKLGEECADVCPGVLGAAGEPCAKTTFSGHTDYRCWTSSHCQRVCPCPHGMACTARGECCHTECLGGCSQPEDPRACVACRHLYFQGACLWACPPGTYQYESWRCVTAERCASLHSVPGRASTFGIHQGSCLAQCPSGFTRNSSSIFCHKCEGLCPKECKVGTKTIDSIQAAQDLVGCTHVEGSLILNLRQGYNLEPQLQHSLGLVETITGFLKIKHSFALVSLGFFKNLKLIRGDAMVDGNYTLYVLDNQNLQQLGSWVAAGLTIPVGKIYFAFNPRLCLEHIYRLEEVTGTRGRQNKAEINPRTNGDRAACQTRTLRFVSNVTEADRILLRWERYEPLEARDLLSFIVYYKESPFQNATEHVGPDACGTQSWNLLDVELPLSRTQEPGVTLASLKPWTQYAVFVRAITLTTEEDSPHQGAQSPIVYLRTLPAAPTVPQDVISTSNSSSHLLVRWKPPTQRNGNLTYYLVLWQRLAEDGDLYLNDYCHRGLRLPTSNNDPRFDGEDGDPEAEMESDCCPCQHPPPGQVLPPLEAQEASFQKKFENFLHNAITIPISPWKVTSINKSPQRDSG", "sequence (P14616 747-1297 limits assumed)": "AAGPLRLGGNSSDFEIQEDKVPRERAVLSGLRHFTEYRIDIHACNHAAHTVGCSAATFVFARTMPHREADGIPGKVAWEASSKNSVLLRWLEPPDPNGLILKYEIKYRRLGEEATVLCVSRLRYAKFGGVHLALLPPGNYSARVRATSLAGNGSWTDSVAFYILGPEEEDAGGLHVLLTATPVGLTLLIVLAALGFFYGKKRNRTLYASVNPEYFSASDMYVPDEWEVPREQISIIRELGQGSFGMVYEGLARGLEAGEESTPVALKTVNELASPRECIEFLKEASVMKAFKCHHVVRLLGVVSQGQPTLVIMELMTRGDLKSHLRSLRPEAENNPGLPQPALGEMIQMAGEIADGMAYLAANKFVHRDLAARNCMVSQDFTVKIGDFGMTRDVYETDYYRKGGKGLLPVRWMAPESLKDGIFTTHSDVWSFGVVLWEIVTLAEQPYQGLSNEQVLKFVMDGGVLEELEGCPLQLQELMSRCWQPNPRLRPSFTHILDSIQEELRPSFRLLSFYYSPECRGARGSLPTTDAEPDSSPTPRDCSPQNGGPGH", "assay": "IRR (h) Millipore kinase activity assay", "conditions": "Compound concentration 1.0 uM"}, "[9]": {"molecular_target": "Histamine H3 receptor (Homo sapiens) (UniProt Q9Y5N1)", "conditions": "Compound concentration 10.0 uM"}, "[10]": {"molecular_target": "Ephrin type-A receptor 7 (Homo sapiens) (UniProt Q15375)", "sequence (Q15375 28-998 limits assumed)": "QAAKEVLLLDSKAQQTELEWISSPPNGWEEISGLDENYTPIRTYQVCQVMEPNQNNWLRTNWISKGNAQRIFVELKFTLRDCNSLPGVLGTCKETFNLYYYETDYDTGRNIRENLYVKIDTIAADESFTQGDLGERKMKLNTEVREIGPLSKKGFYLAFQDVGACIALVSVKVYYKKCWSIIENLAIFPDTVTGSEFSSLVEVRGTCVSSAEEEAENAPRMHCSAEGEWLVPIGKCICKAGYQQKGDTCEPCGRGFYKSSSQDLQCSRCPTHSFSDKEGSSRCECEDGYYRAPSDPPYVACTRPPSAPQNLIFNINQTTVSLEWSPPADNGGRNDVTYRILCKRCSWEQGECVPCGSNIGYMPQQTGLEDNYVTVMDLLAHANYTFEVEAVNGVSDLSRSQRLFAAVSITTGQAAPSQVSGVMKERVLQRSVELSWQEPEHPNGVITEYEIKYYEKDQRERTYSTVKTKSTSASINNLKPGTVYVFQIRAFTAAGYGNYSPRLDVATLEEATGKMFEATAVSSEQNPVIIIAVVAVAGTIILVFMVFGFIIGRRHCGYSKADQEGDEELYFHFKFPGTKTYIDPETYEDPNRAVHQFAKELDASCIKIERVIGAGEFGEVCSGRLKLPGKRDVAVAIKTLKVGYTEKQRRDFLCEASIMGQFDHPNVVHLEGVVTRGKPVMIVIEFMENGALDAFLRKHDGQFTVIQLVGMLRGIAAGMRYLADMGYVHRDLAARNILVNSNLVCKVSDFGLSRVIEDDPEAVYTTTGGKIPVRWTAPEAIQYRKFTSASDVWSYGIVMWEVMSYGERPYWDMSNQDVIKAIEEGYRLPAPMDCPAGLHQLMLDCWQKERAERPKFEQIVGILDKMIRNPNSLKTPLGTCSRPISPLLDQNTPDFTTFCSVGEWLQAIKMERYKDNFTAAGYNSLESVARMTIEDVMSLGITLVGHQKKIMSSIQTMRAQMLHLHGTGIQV", "assay": "EphA7 (h) Millipore kinase activity assay", "conditions": "Compound concentration 1.0 uM"}, "[11]": {"molecular_target": "Ribosomal protein S6 kinase alpha-2 (Homo sapiens) (UniProt Q15349)", "sequence (Q15349 whole entry)": "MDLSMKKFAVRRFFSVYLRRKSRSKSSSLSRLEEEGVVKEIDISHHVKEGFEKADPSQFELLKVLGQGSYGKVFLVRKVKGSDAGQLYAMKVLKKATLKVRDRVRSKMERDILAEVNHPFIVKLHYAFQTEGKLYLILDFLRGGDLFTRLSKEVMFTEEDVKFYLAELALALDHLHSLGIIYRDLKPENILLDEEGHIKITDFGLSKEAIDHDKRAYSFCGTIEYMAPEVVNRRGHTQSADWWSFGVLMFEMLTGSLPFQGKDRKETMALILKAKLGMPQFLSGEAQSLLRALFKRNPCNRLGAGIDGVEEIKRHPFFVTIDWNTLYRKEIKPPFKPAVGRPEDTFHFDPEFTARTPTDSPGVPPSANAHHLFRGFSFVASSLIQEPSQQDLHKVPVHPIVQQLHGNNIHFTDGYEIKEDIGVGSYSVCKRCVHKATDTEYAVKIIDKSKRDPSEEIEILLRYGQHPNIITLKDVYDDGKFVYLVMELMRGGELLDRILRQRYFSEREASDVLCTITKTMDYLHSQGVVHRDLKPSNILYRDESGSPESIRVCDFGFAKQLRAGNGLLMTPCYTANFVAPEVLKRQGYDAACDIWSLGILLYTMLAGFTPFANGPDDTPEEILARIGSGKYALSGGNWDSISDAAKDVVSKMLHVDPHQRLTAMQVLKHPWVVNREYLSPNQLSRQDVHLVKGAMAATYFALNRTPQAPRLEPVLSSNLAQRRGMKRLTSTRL", "assay": "Rsk3 (h) Millipore kinase activity assay", "conditions": "Compound concentration 1.0 uM"}, "[12]": {"molecular_target": "Serine/threonine-protein kinase 38 (Homo sapiens) (UniProt Q15208)", "conditions": "Compound concentration 1000.0 nM"}, "[13]": {"molecular_target": "SRSF protein kinase 3 (Homo sapiens) (UniProt Q9UPE1)", "conditions": "Compound concentration 1000.0 nM"}, "[14]": {"molecular_target": "Receptor tyrosine-protein kinase erbB-3 (Homo sapiens) (UniProt P21860)", "conditions": "Compound concentration 1000.0 nM"}, "[15]": {"molecular_target": "Protein kinase C iota type (Homo sapiens) (UniProt P41743)", "conditions": "Compound concentration 1000.0 nM"}, "[16]": {"molecular_target": "LIM domain kinase 2 (Homo sapiens) (UniProt P53671)", "conditions": "Compound concentration 1000.0 nM"}, "[17]": {"system": "Tyrosine-protein kinase ABL1 (Homo sapiens), P00519 [E255K]", "conditions": "Compound concentration 1000.0 nM"}, "[18]": {"molecular_target": "Fibroblast growth factor receptor 3 (Homo sapiens) (UniProt P22607)", "conditions": "Compound concentration 1000.0 nM"}, "[19]": {"molecular_target": "Ephrin type-A receptor 2 (Homo sapiens) (UniProt P29317)", "conditions": "Compound concentration 1000.0 nM"}, "[20]": {"molecular_target": "Tyrosine-protein kinase receptor TYRO3 (Homo sapiens) (UniProt Q06418)", "conditions": "Compound concentration 1000.0 nM"}, "[21]": {"molecular_target": "Glycogen synthase kinase-3 alpha (Homo sapiens) (UniProt P49840)", "conditions": "Compound concentration 1000.0 nM"}, "[22]": {"molecular_target": "Uncharacterized serine/threonine-protein kinase SBK3 (Homo sapiens) (UniProt P0C264)", "conditions": "Compound concentration 1000.0 nM"}, "[23]": {"molecular_target": "Serine/threonine-protein kinase RIO3 (Homo sapiens) (UniProt O14730)", "conditions": "Compound concentration 1000.0 nM"}, "[24]": {"system": "Serine/threonine-protein kinase B-raf (Homo sapiens), P15056 [V600E]", "sequence (P15056 whole entry V600E)": "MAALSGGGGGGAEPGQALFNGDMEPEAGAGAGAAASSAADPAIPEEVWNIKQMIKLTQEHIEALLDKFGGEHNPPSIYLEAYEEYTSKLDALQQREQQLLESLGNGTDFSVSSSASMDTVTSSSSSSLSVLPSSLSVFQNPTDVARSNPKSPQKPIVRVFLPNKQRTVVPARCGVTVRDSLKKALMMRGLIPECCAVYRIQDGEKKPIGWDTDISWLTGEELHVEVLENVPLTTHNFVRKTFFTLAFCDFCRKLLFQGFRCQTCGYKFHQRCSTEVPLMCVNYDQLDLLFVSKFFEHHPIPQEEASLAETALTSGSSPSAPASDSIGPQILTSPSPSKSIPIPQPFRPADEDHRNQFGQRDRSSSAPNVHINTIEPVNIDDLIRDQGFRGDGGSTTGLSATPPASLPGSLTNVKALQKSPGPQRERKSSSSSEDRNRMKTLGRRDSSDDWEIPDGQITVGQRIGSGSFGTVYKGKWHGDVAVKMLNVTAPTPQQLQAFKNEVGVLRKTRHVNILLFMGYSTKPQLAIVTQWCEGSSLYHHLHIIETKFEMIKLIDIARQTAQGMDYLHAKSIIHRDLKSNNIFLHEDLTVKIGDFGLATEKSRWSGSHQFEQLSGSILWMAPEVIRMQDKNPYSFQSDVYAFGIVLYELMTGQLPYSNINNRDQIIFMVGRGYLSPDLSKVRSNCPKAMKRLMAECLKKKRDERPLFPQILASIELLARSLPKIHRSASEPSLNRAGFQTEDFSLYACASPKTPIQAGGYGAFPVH", "conditions": "Compound concentration 1000.0 nM"}, "[25]": {"molecular_target": "Macrophage-stimulating protein receptor (Homo sapiens) (UniProt Q04912)", "conditions": "Compound concentration 1000.0 nM"}, "[26]": {"molecular_target": "Serine/threonine-protein kinase Nek10 (Homo sapiens) (UniProt Q6ZWH5)", "conditions": "Compound concentration 1000.0 nM"}, "[27]": {"molecular_target": "Serine/threonine-protein kinase Sgk1 (Homo sapiens) (UniProt O00141)", "conditions": "Compound concentration 1000.0 nM"}, "[28]": {"molecular_target": "Ribosomal protein S6 kinase alpha-4 (Homo sapiens) (UniProt O75676)", "conditions": "Compound concentration 1000.0 nM"}, "[29]": {"molecular_target": "Serine/threonine-protein kinase WNK4 (Homo sapiens) (UniProt Q96J92)", "conditions": "Compound concentration 1000.0 nM"}, "[30]": {"molecular_target": "Mitogen-activated protein kinase 3 (Homo sapiens) (UniProt P27361)", "conditions": "Compound concentration 1000.0 nM"}, "[31]": {"molecular_target": "Ephrin type-B receptor 1 (Homo sapiens) (UniProt P54762)", "conditions": "Compound concentration 1000.0 nM"}, "[32]": {"molecular_target": "Phosphatidylinositol 4-phosphate 3-kinase C2 domain-containing subunit beta (Homo sapiens) (UniProt O00750)", "conditions": "Compound concentration 1000.0 nM"}, "[33]": {"molecular_target": "SRSF protein kinase 1 (Homo sapiens) (UniProt Q96SB4)", "conditions": "Compound concentration 1000.0 nM"}, "[34]": {"molecular_target": "NUAK family SNF1-like kinase 2 (Homo sapiens) (UniProt Q9H093)", "conditions": "Compound concentration 1000.0 nM"}, "[35]": {"molecular_target": "Serine/threonine-protein kinase TAO2 (Homo sapiens) (UniProt Q9UL54)", "conditions": "Compound concentration 1000.0 nM"}, "[36]": {"molecular_target": "Serine/threonine-protein kinase DCLK3 (Homo sapiens) (UniProt Q9C098)", "conditions": "Compound concentration 1000.0 nM"}, "[37]": {"molecular_target": "Serine/threonine-protein kinase 33 (Homo sapiens) (UniProt Q9BYT3)", "conditions": "Compound concentration 1000.0 nM"}, "[38]": {"molecular_target": "Serine/threonine-protein kinase TNNI3K (Homo sapiens) (UniProt Q59H18)", "conditions": "Compound concentration 1000.0 nM"}, "[39]": {"molecular_target": "Ephrin type-B receptor 2 (Homo sapiens) (UniProt P29323)", "conditions": "Compound concentration 1000.0 nM"}, "[40]": {"system": "Tyrosine-protein kinase ABL1 (Homo sapiens), P00519 [Q252H]", "conditions": "Compound concentration 1000.0 nM"}, "[41]": {"molecular_target": "Serine/threonine-protein kinase PAK 2 (Homo sapiens) (UniProt Q13177)", "conditions": "Compound concentration 1000.0 nM"}, "[42]": {"molecular_target": "Serine/threonine-protein kinase MARK1 (Homo sapiens) (UniProt Q9P0L2)", "conditions": "Compound concentration 1000.0 nM"}, "[43]": {"molecular_target": "Serine/threonine-protein kinase 17B (Homo sapiens) (UniProt O94768)", "conditions": "Compound concentration 1000.0 nM"}}, "data": [{"smiles": "CC1=C(C#N)C(c2ccc3[nH]nc(C)c3c2)C(C#N)=C(C)N1", "note": "[BAY-474]", "values": [{"measurement": "inhibition at 60 min, 10 µM", "setting": "hERG (KCNH2)", "result": "7% (not active)"}, {"measurement": "inhibition", "setting": "[1]", "result": 6, "unit": "%"}, {"measurement": "inhibition", "setting": "[2]", "result": -3, "unit": "%"}, {"measurement": "inhibition", "setting": "[3]", "result": -7, "unit": "%"}, {"measurement": "inhibition", "setting": "[4]", "result": -2, "unit": "%"}, {"measurement": "inhibition", "setting": "[5]", "result": 26, "unit": "%"}, {"measurement": "inhibition", "setting": "[6]", "result": 26, "unit": "%"}, {"measurement": "inhibition", "setting": "[7]", "result": 7, "unit": "%"}, {"measurement": "inhibition", "setting": "[8]", "result": 2, "unit": "%"}, {"measurement": "inhibition", "setting": "[9]", "result": -3.35, "unit": "%"}, {"measurement": "inhibition", "setting": "[10]", "result": -2, "unit": "%"}, {"measurement": "inhibition", "setting": "[11]", "result": 51, "unit": "%"}]}, {"smiles": "CC1=C(C#N)[C@@H](c2ccc3[nH]nc(C)c3c2)C(C#N)=C(c2ccc(Cl)cc2)N1", "note": "[BAY-827]", "values": [{"measurement": "residual activity", "setting": "[12]", "result": 92.3, "unit": "%"}, {"measurement": "residual activity", "setting": "[13]", "result": 100, "unit": "%"}, {"measurement": "residual activity", "setting": "[14]", "result": 63.9, "unit": "%"}, {"measurement": "residual activity", "setting": "[15]", "result": 99.4, "unit": "%"}, {"measurement": "residual activity", "setting": "[16]", "result": 91.1, "unit": "%"}, {"measurement": "residual activity", "setting": "[17]", "result": 83.5, "unit": "%"}, {"measurement": "residual activity", "setting": "[18]", "result": 91.2, "unit": "%"}, {"measurement": "residual activity", "setting": "[19]", "result": 100, "unit": "%"}, {"measurement": "residual activity", "setting": "[20]", "result": 74.4, "unit": "%"}, {"measurement": "residual activity", "setting": "[21]", "result": 100, "unit": "%"}, {"measurement": "residual activity", "setting": "[22]", "result": 100, "unit": "%"}, {"measurement": "residual activity", "setting": "[23]", "result": 100, "unit": "%"}, {"measurement": "residual activity", "setting": "[24]", "result": 100, "unit": "%"}, {"measurement": "residual activity", "setting": "[25]", "result": 70.2, "unit": "%"}, {"measurement": "residual activity", "setting": "[26]", "result": 59.6, "unit": "%"}, {"measurement": "residual activity", "setting": "[27]", "result": 100, "unit": "%"}, {"measurement": "residual activity", "setting": "[28]", "result": 81.4, "unit": "%"}, {"measurement": "residual activity", "setting": "[29]", "result": 100, "unit": "%"}, {"measurement": "residual activity", "setting": "[30]", "result": 100, "unit": "%"}, {"measurement": "residual activity", "setting": "[31]", "result": 100, "unit": "%"}, {"measurement": "residual activity", "setting": "[32]", "result": 100, "unit": "%"}, {"measurement": "residual activity", "setting": "[33]", "result": 100, "unit": "%"}, {"measurement": "residual activity", "setting": "[34]", "result": 100, "unit": "%"}, {"measurement": "residual activity", "setting": "[35]", "result": 100, "unit": "%"}, {"measurement": "residual activity", "setting": "[36]", "result": 71.3, "unit": "%"}, {"measurement": "residual activity", "setting": "[37]", "result": 90.9, "unit": "%"}, {"measurement": "residual activity", "setting": "[38]", "result": 94.3, "unit": "%"}, {"measurement": "residual activity", "setting": "[39]", "result": 100, "unit": "%"}, {"measurement": "residual activity", "setting": "[40]", "result": 100, "unit": "%"}, {"measurement": "residual activity", "setting": "[41]", "result": 100, "unit": "%"}, {"measurement": "residual activity", "setting": "[42]", "result": 91.1, "unit": "%"}, {"measurement": "residual activity", "setting": "[43]", "result": 100, "unit": "%"}]}]}
